In patent publication US20250326814A1, “MODIFIED OXYNTOMODULIN AND METHODS OF USE THEREOF” (OPKO BIOLOGICS LTD., priority 2024, published 2025):
Non-standard residues stand in square brackets, D forms with d. Residues, ends and D or L forms follow the SMILES beside them. No end group written: not given here. *: point of attachment. X3 = O=C(O)CCCCCCCCCCCCCCCCCCC(=O)N[C@@H](CCC(=O)N[C@@H](CCC(=O)O)C(=O)NCCOCCOCC(=O)NCCOCCOCC(=O)NCCOCCOCC(=O)N[C@@H](CCCCNC(=O)C*)C(=O)NCC(=O)O)C(=O)O; X4 = O=C(O)CCCCCCCCCCCCCCCCC(=O)N[C@@H](CCC(=O)NCCOCCOCC(=O)NCCOCCOCC(=O)N[C@@H](CCCCNC(=O)C*)C(=O)NCC(=O)O)C(=O)O; Aib = CC(C)(N)C(=O)O

How the values were obtained:
[1] = biological target: T1, glucagon-like peptide-1 (GLP1) receptor (Homo sapiens, UniProt P43220); experiment: GLP-1 activity EC50 of OXM analogs and GLP-1 therapeutics (Example 4, Table 9); format: cell-based; settings: GLP-1 activity; Table 9; read-out: EC50
T1 construct: expressed in transfected cells; host or cells: CHO-K1
Source text: The potencies of the modified OXM analogs newly disclosed in the present application, the OXM Analog alone, and the PEGylated OXM analog were examined and compared by measuring the EC50 of both receptors, glucagon-like peptide-1 (GLP1) and glucagon (GCGR).

GCGR = GCGR (Homo sapiens, UniProt P47871); experiment: CBA potency assay, GCGR (Tables 10 and 11); format: cell-based
Source text: (§3) The impact of the longevity-enabling molecule (PEG Vs. FA-peptide/binder complex) on the peptide potency was studied.

GLP1 = GLP1 (Homo sapiens, UniProt P43220); experiment: CBA potency assay, GLP1 (Tables 10 and 11); format: cell-based
Source text: as §3

DIO mice [2] = experiment: Liver H&E staining for lipid droplets / liver lipid in DIO mice; format: in vivo; settings: 15 nmol/kg QD SC
Experimental: In summary, glass slides with paraffin embedded sections were deparaffinated in xylene and rehydrated in series of graded ethanol.
Slides treated with histochemical and immunohistochemical stains were scanned using a 20× objective in a ScanScope AT slide scanner (Aperio).
Hematoxylin & Eosin (H&E) staining: Sections of FFPE tissue were incubated in Mayer's Hematoxylin (Dako), washed in tap water, stained in Eosin Y solution (Sigma-Aldrich), dehydrated in graded ethanol and cover slipped.
(§1) Sixty C57BL/6JRj male mice were fed a high fat diet (60% HFD, D12492—Ssniff) for 20 weeks before treatment start. […] Body weight and food intake (24 h) were measured daily. In week 3, an OGTT study was performed. Baseline and preterminal fasting blood glucose and plasma insulin were assessed. Preterminal plasma TC and TG were assessed. Terminal endpoints included liver and heart weight, liver TC, TG, […] and lipid content (HE staining).

DIO mice [3] = experiment: Body composition (fat and lean tissue mass) in DIO mice; format: in vivo
Experimental: The body composition of mice was assessed by an EchoMRI 3 in 1 Body composition analyzer (EchoMRI, US). Non-anaesthetized animals were placed in a plastic tube inside the MRI scanner for approximately 80 seconds. The body composition was reported as fat mass and fat free mass (lean mass).
as §1

DIO mice [4] = experiment: Body weight and food intake in DIO mice, 4 weeks daily treatment; format: in vivo; settings: for food consumption / cumulative food intake (FIG. 17B, 18B): OPK-88604 vs semaglutide; for cumulative food intake on day 28, P compared to Vehicle (FIG. 15): 15 nmol/kg q.d. SC, 4 weeks
Experimental: The animals were individually weighed and analyzed for lipid and cholesterol levels prior to treatment and following completion of the study. The levels of fasting glucose and insulin levels were analyzed, and oral glucose tolerance test was performed and compared between groups The levels of plasma triglycerides and cholesterol were evaluated at the end of study and compared to base levels prior to treatment. Levels of total cholesterol, triglycerides and glycogen were also examined at the end of study. Histology of liver was used to analyze for lipid droplets in the liver. All tests were conducted using routine methods known in the art.
The mice used in the studies were the gubra diet-induced obese (DIO) mouse model. This mouse model is fed a high fat diet that results in rapid weight gain. The DIO mice were based on male C57BI/6J mice and ready for experiment after 18 weeks on a 60% high fat diet.
To ensure accurate monitoring of weight changes over the course of the study, the animals were weighed daily with precision, prior to dosing at 7:00 AM. Body weight data was recorded in two formats: (1) Absolute measurements: The direct weight of the animal each day, and (2) Relative measurements: The weight expressed as a percentage relative to the body weight recorded on Day 1.
as §1

DIO mice [5] = experiment: Fasting blood glucose and plasma insulin in DIO mice; format: in vivo; settings: 15 nmol/kg q.d.
Experimental: (§2) For in vivo blood samples, tail-vein, tongue or cheek blood was collected in a Microvette tube of appropriate dimensions with anticoagulant and mixed by inversion 5 times. Blood was placed at 4° C. until centrifuged at 3000 g for 10 minutes. The plasma supernatants were transferred to new tubes and immediately frozen on dry ice. The samples were stored at −70° C.
Insulin: Blood samples were collected in heparinized tubes and plasma was separated and stored at −70° C. until analysis. Insulin was measured using the commercial MSD platform (Meso Scale Diagnostics).
as §1

DIO mice [6] = experiment: Plasma cholesterol and triglyceride in DIO mice; format: in vivo; settings: 15 nmol/kg q.d.
Experimental: as §2, with “termination” for “in vivo”, “during anesthesia with isoflurane, the abdominal cavity was opened, and cardiac” for “tail-vein, tongue or cheek”, “drawn with” for “collected in”, “syringe into a Microvette/Vacuette” for “Microvette tube”
Alanine transaminase (ALT), Aspartate transaminase (AST), Triglycerides (TG) and Total Cholesterol (TC): Blood samples were collected in heparinized tubes and plasma was separated and stored at −70° C. until analysis. Samples were measured using commercial kits (Roche Diagnostics), on the cobas c 501 autoanalyzer.
as §1

Chain of GLP1 (P43220 24-463): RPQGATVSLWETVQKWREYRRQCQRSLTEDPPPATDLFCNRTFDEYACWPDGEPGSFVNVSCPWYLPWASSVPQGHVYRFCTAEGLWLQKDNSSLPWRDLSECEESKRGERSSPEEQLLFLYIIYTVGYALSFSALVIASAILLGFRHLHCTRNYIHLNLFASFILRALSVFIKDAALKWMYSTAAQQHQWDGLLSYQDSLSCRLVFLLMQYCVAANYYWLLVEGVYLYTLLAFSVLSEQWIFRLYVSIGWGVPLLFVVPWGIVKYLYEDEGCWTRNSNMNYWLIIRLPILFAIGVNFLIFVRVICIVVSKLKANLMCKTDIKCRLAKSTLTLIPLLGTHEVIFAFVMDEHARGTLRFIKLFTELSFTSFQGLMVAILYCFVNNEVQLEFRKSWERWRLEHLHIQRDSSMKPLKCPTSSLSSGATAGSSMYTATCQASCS
T1 sequence (P43220 24-463): as above
Chain of GCGR (P47871 26-477): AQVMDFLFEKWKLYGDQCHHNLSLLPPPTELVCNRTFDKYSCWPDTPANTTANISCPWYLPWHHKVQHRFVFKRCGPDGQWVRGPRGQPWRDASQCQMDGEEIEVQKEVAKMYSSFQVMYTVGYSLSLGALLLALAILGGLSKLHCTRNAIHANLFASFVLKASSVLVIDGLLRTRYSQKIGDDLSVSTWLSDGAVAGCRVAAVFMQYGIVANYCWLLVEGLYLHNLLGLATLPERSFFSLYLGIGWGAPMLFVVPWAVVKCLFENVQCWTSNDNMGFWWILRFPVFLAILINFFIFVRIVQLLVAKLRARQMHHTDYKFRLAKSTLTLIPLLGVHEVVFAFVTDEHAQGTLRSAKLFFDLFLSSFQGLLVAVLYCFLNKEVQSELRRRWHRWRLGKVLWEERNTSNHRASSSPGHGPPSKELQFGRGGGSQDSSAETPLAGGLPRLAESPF

`CC[C@H](C)[C@H](NC(=O)[C@H](CC(N)=O)NC(=O)[C@H](CC(N)=O)NC(=O)[C@H](CCCNC(=N)N)NC(=O)[C@H](CC(N)=O)NC(=O)[C@H](CCCNC(=N)N)NC(=O)CNC(=O)C(C)(C)NC(=O)[C@H](CC(N)=O)NC(=O)[C@H](CC(C)C)NC(=O)[C@H](CC(C)C)NC(=O)[C@H](Cc1c[nH]c2ccccc12)NC(=O)[C@H](CCC(N)=O)NC(=O)[C@@H](NC(=O)[C@H](Cc1ccccc1)NC(=O)[C@H](CCC(=O)O)NC(=O)[C@H](CCC(N)=O)NC(=O)[C@H](C)NC(=O)[C@H](CCCCN)NC(=O)[C@H](CCCCN)NC(=O)[C@H](CO)NC(=O)[C@H](CC(=O)O)NC(=O)[C@H](CC(C)C)NC(=O)[C@H](Cc1ccc(O)cc1)NC(=O)[C@H](CCCCN)NC(=O)[C@H](CO)NC(=O)[C@H](Cc1ccc(O)cc1)NC(=O)[C@H](CC(=O)O)NC(=O)[C@H](CO)NC(=O)[C@@H](NC(=O)[C@H](Cc1ccccc1)NC(=O)[C@@H](NC(=O)CNC(=O)[C@H](CCC(N)=O)NC(=O)C(C)(C)NC(=O)[C@@H](N)Cc1c[nH]cn1)[C@@H](C)O)[C@@H](C)O)C(C)C)C(=O)N[C@@H](C)C(=O)N[C@@H](CS)C(N)=O` [MOD-604 KPI] (HELM PEPTIDE1{H.[Aib].Q.G.T.F.T.S.D.Y.S.K.Y.L.D.S.K.K.A.Q.E.F.V.Q.W.L.L.N.[Aib].G.R.N.R.N.N.I.A.C.[am]}$$$$V2.0) was tested, and the EC50 [1] was 0.13 nM, the “% EC50 compare to KPI (GCGR)” value (GCGR; Table 10) was 72% and the “Activity fold reduction compared to OPK-88003 KPI (GCGR)” value (GCGR; Table 10) was 1.4 fold. For the same compound, the EC50 (GCGR; Table 10) was 0.83 nM, the “EC50 ratio (GCGR\GLP-1R)” value (GCGR; Table 10) was 2.9 and the “% EC50 compare to KPI (GLP1)” value (GLP1; Table 10) was 45%. The “Activity fold reduction compared to OPK-88003 KPI (GLP1)” value (GLP1; Table 10) was 2.2 fold and the EC50 (GLP1; Table 10) was 0.282 nM.

`CC[C@H](C)[C@H](NC(=O)[C@H](CC(N)=O)NC(=O)[C@H](CC(N)=O)NC(=O)[C@H](CCCNC(=N)N)NC(=O)[C@H](CC(N)=O)NC(=O)[C@H](CCCNC(=N)N)NC(=O)CNC(=O)C(C)(C)NC(=O)[C@H](CC(N)=O)NC(=O)[C@H](CC(C)C)NC(=O)[C@H](CC(C)C)NC(=O)[C@H](Cc1c[nH]c2ccccc12)NC(=O)[C@H](CCC(N)=O)NC(=O)[C@@H](NC(=O)[C@H](Cc1ccccc1)NC(=O)[C@H](CCC(=O)O)NC(=O)[C@H](CCC(N)=O)NC(=O)[C@H](C)NC(=O)[C@H](CCCCN)NC(=O)[C@H](CCCCN)NC(=O)[C@H](CO)NC(=O)[C@H](CC(=O)O)NC(=O)[C@H](CC(C)C)NC(=O)[C@H](Cc1ccc(O)cc1)NC(=O)[C@H](CCCCN)NC(=O)[C@H](CO)NC(=O)[C@H](Cc1ccc(O)cc1)NC(=O)[C@H](CC(=O)O)NC(=O)[C@H](CO)NC(=O)[C@@H](NC(=O)[C@H](Cc1ccccc1)NC(=O)[C@@H](NC(=O)CNC(=O)[C@H](CCC(N)=O)NC(=O)C(C)(C)NC(=O)[C@@H](N)Cc1c[nH]cn1)[C@@H](C)O)[C@@H](C)O)C(C)C)C(=O)N[C@@H](C)C(=O)N[C@@H](CSCC(=O)NCCCC[C@H](NC(=O)COCCOCCNC(=O)COCCOCCNC(=O)CC[C@H](NC(=O)CCCCCCCCCCCCCCCCC(=O)O)C(=O)O)C(=O)NCC(=O)O)C(N)=O` [Variant 2] (H-H[Aib]QGTFTSDYSKYLDSKKAQEFVQWLLN[Aib]GRNRNNIAC(X4)-NH2) showed an EC50 [1] of 0.1 nM.

`CC[C@H](C)[C@H](NC(=O)[C@H](CC(N)=O)NC(=O)[C@H](CC(N)=O)NC(=O)[C@H](CCCNC(=N)N)NC(=O)[C@H](CC(N)=O)NC(=O)[C@H](CCCNC(=N)N)NC(=O)CNC(=O)C(C)(C)NC(=O)[C@H](CC(N)=O)NC(=O)[C@H](CC(C)C)NC(=O)[C@H](CC(C)C)NC(=O)[C@H](Cc1c[nH]c2ccccc12)NC(=O)[C@H](CCC(N)=O)NC(=O)[C@@H](NC(=O)[C@H](Cc1ccccc1)NC(=O)[C@H](CCC(=O)O)NC(=O)[C@H](CCC(N)=O)NC(=O)[C@H](C)NC(=O)[C@H](CCCCN)NC(=O)[C@H](CCCCN)NC(=O)[C@H](CO)NC(=O)[C@H](CC(=O)O)NC(=O)[C@H](CC(C)C)NC(=O)[C@H](Cc1ccc(O)cc1)NC(=O)[C@H](CCCCN)NC(=O)[C@H](CO)NC(=O)[C@H](Cc1ccc(O)cc1)NC(=O)[C@H](CC(=O)O)NC(=O)[C@H](CO)NC(=O)[C@@H](NC(=O)[C@H](Cc1ccccc1)NC(=O)[C@@H](NC(=O)CNC(=O)[C@H](CCC(N)=O)NC(=O)C(C)(C)NC(=O)[C@@H](N)Cc1c[nH]cn1)[C@@H](C)O)[C@@H](C)O)C(C)C)C(=O)N[C@@H](C)C(=O)N[C@@H](CSCC(=O)NCCCC[C@H](NC(=O)COCCOCCNC(=O)COCCOCCNC(=O)COCCOCCNC(=O)[C@H](CCC(=O)O)NC(=O)CC[C@H](NC(=O)CCCCCCCCCCCCCCCCCCC(=O)O)C(=O)O)C(=O)NCC(=O)O)C(N)=O` [Variant 3] (H-H[Aib]QGTFTSDYSKYLDSKKAQEFVQWLLN[Aib]GRNRNNIAC(X3)-NH2) gave an EC50 [1] of 0.15 nM.

In the case of “OPK-88003 FA-conjugate: either the modified OXM of Formula XXII or the modified OXM of Formula XXIII (H[Aib]QGTFTSDYSKYLDSKKAQEFVQWLLN[Aib]GRNRNNIACC; not fully specified (C-terminus); also: fatty acid binder on Cys38 or Cys39, isomer not given here)”, the “EC50 ratio (GCGR\GLP-1R)” value (GCGR; Table 10) is reported as 7.6, the “EC50 ratio (GCGR\GLP-1R)” value (GCGR; Table 11, + HSA) is reported as 23.3 and the “EC50 ratio (GCGR\GLP-1R)” value (GCGR; Table 11, without HSA) is reported as 15.2. The “Activity fold reduction compared to OPK-88003 KPI (GLP1)” value (GLP1; Table 11, without HSA) was “non”.

Semaglutide was tested, and the “relative liver lipid / total liver lipid, P compared to Vehicle (FIG. 31A, 31B)” value (DIO mice [2]) was < 0.05, the “change in lean tissue mass from baseline, P compared to Vehicle (FIG. 23B)” value (DIO mice [3]; 15 nmol/kg QD SC) was < 0.05 and the “relative fat tissue mass / relative lean tissue mass at week 4, P compared to Vehicle (FIG. 22A, 22B)” value (DIO mice [3]; 15 nmol/kg QD SC) was < 0.05. The “relative lean body mass and fat mass change from baseline on day 28 (FIG. 24A, 24B)” value (DIO mice [3]; 15 nmol/kg daily, 28 days, OPK-88604 vs semaglutide) was “statistically similar”, the “absolute body weight at day 28, P compared to Vehicle (FIG. 16A)” value (DIO mice [4]; 15 nmol/kg QD SC) was < 0.01 and the “food consumption / cumulative food intake (FIG. 17B, 18B)” value (DIO mice [4]; 15 nmol/kg daily, 28 days) was “reduced food consumption significantly more than OPK-88604 treatment”. For the same compound, the “weight loss from baseline (FIG. 17A, 18A)” value (DIO mice [4]; 15 nmol/kg daily, 28 days, OPK-88604 vs semaglutide vs placebo) was “similar”, the “food consumption / cumulative food intake (FIG. 17B, 18B)” value (DIO mice [4]; 15 nmol/kg daily, 28 days, listed as semaglutide) was “significantly decreased” and the “cumulative food intake on day 28, P compared to Vehicle (FIG. 15)” value (DIO mice [4]) was < 0.05.

In the case of Tirzepatide [reference compound], the “glucose tolerance plasma insulin at week 1, P compared to Vehicle (FIG. 36A)” value (DIO mice [5]) is reported as < 0.01, the “glucose tolerance plasma insulin at week 4, P compared to Vehicle (FIG. 36B)” value (DIO mice [5]) is reported as < 0.01 and the “plasma triglyceride at termination, P compared to Vehicle (FIG. 32B)” value (DIO mice [6]) is reported as < 0.01. The “relative liver lipid / total liver lipid, P compared to Vehicle (FIG. 31A, 31B)” value (DIO mice [2]) was < 0.01, the “absolute fat tissue mass at week 4, P compared to Vehicle (FIG. 21A)” value (DIO mice [3]; 15 nmol/kg QD SC) was < 0.001 and the “relative fat tissue mass / relative lean tissue mass at week 4, P compared to Vehicle (FIG. 22A, 22B)” value (DIO mice [3]; 15 nmol/kg QD SC) was < 0.001. For the same compound, the “cumulative food intake on day 28, P compared to Vehicle (FIG. 15)” value (DIO mice [4]) was < 0.001.
